Test results as given in PMC10480161, “Identification of potent and selective N-myristoyltransferase inhibitors of Plasmodium vivax liver stage hypnozoites and schizonts” (Nature Communications, 2023).
Values joined by “and” are separate entries in the source; they are usually repeats but may differ in a detail not shown here. Equal entries are not always repeated.

Columns and labels:
[1] = tested on: P. vivax hypnozoites; assay: P. vivax liver stage assay, hypnozoites; type: cell-based, Plasmodium vivax; settings: for Hypnozoites per well: Isolate 2, replicate wells (Figure 6d); for Number of liverstage hypnozoites per well: 20 µM, 8 dpi; for IC50: Plasmodium vivax, Hepatocyte, 120 h, primary human hepatocytes, treatment day 5 to 8 post-infection, isolate 2
Method in brief: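 Primary human hepatocytes infected with P. vivax sporozoites, then exposed to compound daily from day 5 to day 8 post-infection. Fixed cells stained with DAPI and PvUIS4 antibody; hypnozoites and schizonts counted by confocal imaging. MMV390048 at 20 µM served as schizont-eliminating control.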

[2] = tested on: primary human hepatocytes; assay: Nuclear counts (DAPI) in P. vivax-infected primary hepatocytes as measure of toxicity; type: cell-based; settings: two technical replicates
Method in brief: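 Primary human hepatocytes from one donor lot, infected with P. vivax sporozoites, were dosed from day 5 to day 8 post-infection with daily refeeding and compound replacement, up to 20 µM. After PFA fixation, nuclei were DAPI-stained, imaged confocally and counted, then normalized to DMSO controls (two technical replicates).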

[3] = tested on: HepG2 cells; assay: HepG2 cytotoxicity assay (Live/Dead staining); settings: replicates
Method in brief: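 HepG2 cells (5000/well) treated with compounds at 1 to 20 µM, re-dosed with fresh compound every 24 h. Viability scored at 72 h by calcein-AM/ethidium homodimer (1 µM each, 10 min, 37 °C) live/dead staining under fluorescence microscopy.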

[4] = tested on: P. vivax schizonts; assay: P. vivax liver stage assay, schizonts; type: cell-based, Plasmodium vivax; settings: for Number of liverstage Schizonts per well: 20 µM, 8 dpi; for IC50: Plasmodium vivax, Hepatocyte, 120 h, primary human hepatocytes, treatment day 5 to 8 post-infection, isolates 2 and 3
Method in brief: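 Primary human hepatocytes (single donor, 25,000/well) infected with 14,000 P. vivax sporozoites per well from patient isolates; compounds (up to 20 µM) given daily from day 5 to day 8 post-infection. Schizonts counted by PvUIS4/DAPI confocal imaging; DAPI nuclei count used as toxicity measure.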

[5] = isolate 1, technical replicates (Fig. 6C)
[6] = isolate 2, technical replicates (Fig. 6C)
[7] = isolate 3, technical replicates (Fig. 6C)
[8] = isolate 1, technical replicates (Fig. 5b)
[9] = isolate 2, technical replicates (Fig. 5b)
[10] = isolate 3, technical replicates (Fig. 5b)

Row | SMILES | Hypnozoites per well ([1]; 1.25 uM) | Hypnozoites per well ([1]; 2.5 uM) | Hypnozoites per well ([1]; 5 uM) | Hypnozoites per well ([1]; 10 uM) | Number of liverstage hypnozoites per well [1, 5] | Number of liverstage hypnozoites per well [1, 6] | Number of liverstage hypnozoites per well [1, 7] | Hypnozoites per well ([1]; 20 uM) | IC50 [1] | hypnozoites (fold change to DMSO) mean diff ([1]; isolate 1, 20 µM) | hypnozoites (fold change to DMSO) mean diff ([1]; isolate 2, 20 µM) | Nucleus counts per well ([2]; 1 uM) | Nucleus counts per well ([2]; 2.5uM) | Nucleus counts per well ([2]; 5 uM) | Nucleus counts per well ([2]; 10uM) | Nucleus counts per well ([2]; 20uM, P. vivax-infected wells) | Percentage of live HepG2 cells compared with diluent controls ([3]; 1 μM) | Percentage of live HepG2 cells compared with diluent controls ([3]; 2.5 μM) | Percentage of live HepG2 cells compared with diluent controls ([3]; 5 μM) | Percentage of live HepG2 cells compared with diluent controls ([3]; 10 μM) | also measured
1 | c1cncc(CCOc2cccnc2-c2cccc(N3CCNCC3)c2)c1 [Compound 12g] | 5 and 0 and 3 | 3 and 4 and 0 | 1 and 2 and 0 | 1 and 0 (2×) | 1 per well and 0 per well (2×) | 1 per well and 0 per well (2×) | 0 per well | 1 and 0 (2×) | 1.2 µM | 0.785 | 0.966 | 14940 per well and 14730 per well | 14740 per well and 14990 per well | 14960 per well and 13600 per well | 13740 per well and 14770 per well | 11770 per well and 13000 per well | 99.9402% and 99.6024% | 99.7323% and 98.2512% | 98.4851% and 90.6374% | 86.6876% and 91.5989% | Percentage of live HepG2 cells compared with diluent controls ([3]; 20 μM): 78.4502% and 78.1644%; Number of liverstage Schizonts per well [4, 8]: 0 per well; Number of liverstage Schizonts per well [4, 9]: 3 per well and 4 per well and 6 per well; Number of liverstage Schizonts per well [4, 10]: 3 per well; Schizonts per well ([4]; Isolate 2, 1.25 uM): 10 per well and 11 per well and 19 per well; Schizonts per well ([4]; Isolate 2, 2.5 uM): 11 per well and 12 per well and 16 per well; Schizonts per well ([4]; Isolate 2, 5 uM): 6 per well and 8 per well and 11 per well; Schizonts per well ([4]; Isolate 2, 20 uM (Fig. 5c-d)): 3 per well and 4 per well and 6 per well; Schizonts per well ([4]; Isolate 3, 1.25 uM): 13 per well and 11 per well; Schizonts per well ([4]; Isolate 3, 2.5 uM): 7 per well and 6 per well; Schizonts per well ([4]; Isolate 3, 5 uM): 8 per well and 4 per well; Schizonts per well ([4]; Isolate 3, 10 uM): 5 per well; Schizonts per well ([4]; Isolate 3, 20 uM (Fig. 5c-d)): 3 per well; IC50 [4]: 2.2 to 3.1 µM; schizonts (fold change to DMSO) mean diff ([4]; isolate 1, 20 µM): 1.000; schizonts (fold change to DMSO) mean diff ([4]; isolate 2, 20 µM): 0.7547; schizonts (fold change to DMSO) mean diff ([4]; isolate 3, 20 µM): 0.7955
2 | Cc1nn(C)c(C)c1CCOc1cccnc1-c1ccnc(N2CCNCC2)c1 [Compound 12a] | 12 and 10 and 8 | 8 and 7 and 13 | 6 and 8 and 7 | 1 and 3 and 0 | 8 per well (2×) and 0 per well | 0 per well (2×) and 3 per well | 0 per well | 0 (2×) and 3 | 5.7 µM | 0.754 | 0.897 | 15610 per well and 14860 per well | 15510 per well and 15490 per well | 15510 per well and 14150 per well | 13830 per well and 15570 per well | 12100 per well and 13960 per well | 103.266% and 104.098% | 103.396% and 103.37% | 103.812% and 94.3274% | 93.0541% and 92.1966% | Percentage of live HepG2 cells compared with diluent controls ([3]; 20 μM): 80.685% and 80.1653%; Number of liverstage Schizonts per well [4, 8]: 5 per well and 3 per well and 1 per well; Number of liverstage Schizonts per well [4, 9]: 1 per well and 0 per well and 3 per well; Number of liverstage Schizonts per well [4, 10]: 2 per well and 6 per well; Schizonts per well ([4]; Isolate 2, 1.25 uM): 12 per well and 16 per well and 11 per well; Schizonts per well ([4]; Isolate 2, 5 uM): 8 per well and 10 per well and 7 per well; Schizonts per well ([4]; Isolate 3, 1.25 uM): 12 per well and 15 per well; Schizonts per well ([4]; Isolate 3, 2.5 uM): 12 per well and 9 per well; Schizonts per well ([4]; Isolate 3, 5 uM): 7 per well and 5 per well; IC50 [4]: 3 to 3.8 µM; schizonts (fold change to DMSO) mean diff ([4]; isolate 1, 20 µM): 0.850; schizonts (fold change to DMSO) mean diff ([4]; isolate 2, 20 µM): 0.9245; schizonts (fold change to DMSO) mean diff ([4]; isolate 3, 20 µM): 0.7273
3 | Cc1nn(C)c(C)c1CCOc1cc(F)ccc1-c1cccc(N2CCNCC2)c1 [Compound 12f] | 4 (2×) and 2 | 3 | 2 and 3 (2×) | 1 | 1 per well (2×) and 0 per well | 1 per well (2×) and 0 per well | 0 per well | 1 (2×) and 0 | 1.5 µM | 0.939 | 0.931 | 15280 per well and 15770 per well | 15290 per well and 15210 per well | 15170 per well and 14310 per well | 14300 per well and 15260 per well | 13150 per well and 16410 per well | 101.889% and 101.421% | 101.941% and 101.11% | 95.3928% and 101.733% | 95.3148% and 109.373% | Percentage of live HepG2 cells compared with diluent controls ([3]; 20 μM): 87.3113% and 87.6751%; Number of liverstage Schizonts per well [4, 8]: 0 per well; Number of liverstage Schizonts per well [4, 9]: 1 per well and 0 per well (2×); Number of liverstage Schizonts per well [4, 10]: 3 per well and 2 per well; Schizonts per well ([4]; Isolate 2, 1.25 uM): 12 per well and 13 per well and 17 per well; Schizonts per well ([4]; Isolate 2, 2.5 uM): 10 per well and 9 per well and 15 per well; Schizonts per well ([4]; Isolate 2, 5 uM): 8 per well and 9 per well and 11 per well; Schizonts per well ([4]; Isolate 3, 1.25 uM): 11 per well; Schizonts per well ([4]; Isolate 3, 2.5 uM): 10 per well and 12 per well; Schizonts per well ([4]; Isolate 3, 5 uM): 7 per well and 5 per well; Schizonts per well ([4]; Isolate 3, 10 uM): 3 per well and 5 per well; Schizonts per well ([4]; Isolate 3, 20 uM (Fig. 5c-d)): 3 per well and 2 per well; IC50 [4]: 3.3 to 4.3 µM; schizonts (fold change to DMSO) mean diff ([4]; isolate 1, 20 µM): 1.000; schizonts (fold change to DMSO) mean diff ([4]; isolate 2, 20 µM): 0.9811; schizonts (fold change to DMSO) mean diff ([4]; isolate 3, 20 µM): 0.8295
